Measurements reported in PMC5285354, “Cationic Net Charge and Counter Ion Type as Antimicrobial Activity Determinant Factors of Short Lipopeptides” (Frontiers in Microbiology, 2017).
In brackets after ≈: the same amount, converted by molar mass. Where a SMILES comes first, the peptide text is derived from it. The star is where a group is joined. Palmitoyl = CCCCCCCCCCCCCCCC(=O)*; Myristoyl = CCCCCCCCCCCCCC(=O)*

Legend:
Assay type in all cases: cell-based
[1] = test system: Proteus vulgaris (PCM 2668); details: 24 h
[2] = test system: Candida albicans (ATCC 10231)
[3] = test system: Pseudomonas aeruginosa (ATCC 9027); details: ATCC 9027, 24 h
[4] = test system: human red blood cells; details: 1 h
How it was run: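 Washed donor erythrocytes (4% v/v in PBS, EDTA-anticoagulated) incubated with graded lipopeptide concentrations for 1 h at 37 °C; hemoglobin release read at 550 nm in supernatants. Scaled between 0.1% Triton X-100 (100%) and PBS (0%); MHC is the lowest concentration giving 10% hemolysis.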

[5] = test system: Proteus vulgaris (PCM 2668); details: 18 h
How it was run: (§1)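 MIC in μg/mL, read as the lowest lipopeptide level with no observable growth. Microbroth dilution followed CLSI guidance, using MH broth, 10^5 cfu/mL and 18 h at 37°C for bacterial strains, or Sabouraud Dextrose broth, 10^3 cfu/mL and 48 h at 25°C for yeasts.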

[6] = test system: Aspergillus brasiliensis (ATCC 16404); details: ATCC 16404, 48 h
How it was run: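 Broth microdilution per CLSI: Mueller-Hinton broth, 10^5 cfu/mL inoculum, 18 h at 37°C for bacteria; Sabouraud dextrose broth, 10^3 cfu/mL, 48 h at 25°C for fungi. MIC (μg/mL) is the lowest lipopeptide concentration inhibiting visible growth; MBC/MFC also determined. Triplicate on three days.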

[7] = test system: Staphylococcus epidermidis (PCM 2118); details: for MIC Staphylococcus epidermidis: PCM 2118, 18 h; for MBC Staphylococcus epidermidis: PCM 2118, 24 h
How it was run: (§2)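 Lowest lipopeptide concentration (μg/mL) with no observable growth gave the MIC, alongside MBC/MFC, by CLSI microbroth dilution. Fungi: Sabouraud dextrose broth, 10^3 cfu/mL start, 25°C for 48 h; bacteria: MH broth, 10^5 cfu/mL, 37°C for 18 h. Run in triplicate, three separate days.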

[8] = test system: Bacillus subtilis (ATCC 6633); details: for MIC Bacillus subtillis: ATCC 6633, 18 h; for MBC Bacillus subtillis: ATCC 6633, 24 h
How it was run: as §2

[9] = test system: Staphylococcus aureus (ATCC 25923); details: for MBC Staphylococcus aureus, lipopeptides without TFA counter ion / MIC Staphylococcus aureus / MIC Staphylococcus aureus, lipopeptides without TFA counter ion: ATCC 25923, 18 h; for MBC Staphylococcus aureus: ATCC 25923, 24 h
How it was run: as §1

[10] = test system: Candida albicans (ATCC 10231); details: ATCC 10231, 48 h
How it was run: as §1

[11] = test system: Pseudomonas aeruginosa (ATCC 9027); details: ATCC 9027, 18 h
How it was run: as §1

[12] = test system: Escherichia coli (ATCC 25922); details: for MBC Escherichia coli, lipopeptides without TFA counter ion / MIC Escherichia coli / MIC Escherichia coli, lipopeptides without TFA counter ion: ATCC 25922, 18 h; for MBC Escherichia coli: ATCC 25922, 24 h
How it was run: as §1

[13] = test system: Candida tropicalis (PCM 2681); details: PCM 2681, 48 h
How it was run: as §1

[14] = test system: Enterococcus faecalis (ATCC 29212); details: for MBC Enterococcus fecalis, lipopeptides without TFA counter ion / MIC Enterococcus fecalis / MIC Enterococcus fecalis, lipopeptides without TFA counter ion: ATCC 29212, 18 h; for MBC Enterococcus fecalis: ATCC 29212, 24 h
How it was run: as §2

[15] = test system: Klebsiella pneumoniae (ATCC 700603); details: for MBC Klebsiella pneumoniae, lipopeptides without TFA counter ion / MIC Klebsiella pneumoniae / MIC Klebsiella pneumoniae, lipopeptides without TFA counter ion: ATCC 700603, 18 h; for MBC Klebsiella pneumoniae: ATCC 700603, 24 h
How it was run: as §1

Row | SMILES | MBC Proteus vulgaris [1] [µg/mL] | MFC Candida albicans, lipopeptides without TFA counter ion [2] [µg/mL] | MBC Pseudomonas aeruginosa [3] [µg/mL] | MIC Proteus vulgaris [5] [µg/mL] | MFC Aspergillus brasiliensis [6] [µg/mL] | MIC Aspergillus brasiliensis [6] [µg/mL] | MIC Staphylococcus epidermidis [7] [µg/mL] | MBC Staphylococcus epidermidis [7] [µg/mL] | MIC Bacillus subtillis [8] [µg/mL] | MBC Bacillus subtillis [8] [µg/mL] | MBC Staphylococcus aureus, lipopeptides without TFA counter ion [9] [µg/mL] | MIC Staphylococcus aureus [9] [µg/mL] | MIC Staphylococcus aureus, lipopeptides without TFA counter ion [9] [µg/mL] | MBC Staphylococcus aureus [9] [µg/mL] | MFC Candida albicans [10] [µg/mL] | MIC Candida albicans [10] [µg/mL] | MIC Candida albicans, lipopeptides without TFA counter ion [10] [µg/mL] | MIC Pseudomonas aeruginosa [11] [µg/mL] | MBC Escherichia coli, lipopeptides without TFA counter ion [12] [µg/mL] | MIC Escherichia coli [12] [µg/mL] | also measured
1 | CCCCCCCCCCCCCC(=O)N[C@@H](CCCCN)C(=O)NCC(=O)N[C@@H](CCCCN)C(N)=O [C14-KGK-NH2] (Myristoyl-Lys-Gly-Lys-NH2) | >512 | 128 (≈ 237 µM) | 64 (≈ 118 µM) | >512 | 128 (≈ 237 µM) | 128 (≈ 237 µM) | 16 (≈ 29.6 µM) | 16 (≈ 29.6 µM) | 8 (≈ 14.8 µM) | 8 (≈ 14.8 µM) | 64 (≈ 118 µM) | 64 (≈ 118 µM) | 64 (≈ 118 µM) | 128 (≈ 237 µM) | 128 (≈ 237 µM) | 128 (≈ 237 µM) | 128 (≈ 237 µM) | 32 (≈ 59.2 µM) | 128 (≈ 237 µM) | 128 (≈ 237 µM) | Hemolysis HC10 (MHC), concentration of lipopeptide inducing 10% of hemolysis [4]: 128 µg/mL; MIC Escherichia coli, lipopeptides without TFA counter ion [12]: 128 µg/mL (≈ 237 µM); MBC Escherichia coli [12]: 128 µg/mL (≈ 237 µM); MFC Candida tropicalis [13]: 256 µg/mL (≈ 473 µM); MIC Candida tropicalis [13]: 256 µg/mL (≈ 473 µM); MBC Enterococcus fecalis, lipopeptides without TFA counter ion [14]: 64 µg/mL (≈ 118 µM); MIC Enterococcus fecalis [14]: 64 µg/mL (≈ 118 µM); MIC Enterococcus fecalis, lipopeptides without TFA counter ion [14]: 64 µg/mL (≈ 118 µM); MBC Enterococcus fecalis [14]: 64 µg/mL (≈ 118 µM); MBC Klebsiella pneumoniae, lipopeptides without TFA counter ion [15]: 64 µg/mL (≈ 118 µM); MIC Klebsiella pneumoniae [15]: 64 µg/mL (≈ 118 µM); MIC Klebsiella pneumoniae, lipopeptides without TFA counter ion [15]: 64 µg/mL (≈ 118 µM); MBC Klebsiella pneumoniae [15]: 64 µg/mL (≈ 118 µM)
2 | CCCCCCCCCCCCCC(=O)N[C@@H](CCCCN)C(N)=O [C14-K-NH2] | >512 | 512 (≈ 1440 µM) | 1000 (≈ 2810 µM) | >512 | 512 (≈ 1440 µM) | 512 (≈ 1440 µM) | 16 (≈ 45 µM) | 16 (≈ 45 µM) | 32 (≈ 90 µM) | 32 (≈ 90 µM) | 64 (≈ 180 µM) | 64 (≈ 180 µM) | 64 (≈ 180 µM) | 64 (≈ 180 µM) | 512 (≈ 1440 µM) | 512 (≈ 1440 µM) | 512 (≈ 1440 µM) | 128 (≈ 360 µM) | 128 (≈ 360 µM) | 128 (≈ 360 µM) | Hemolysis HC10 (MHC), concentration of lipopeptide inducing 10% of hemolysis [4]: 512 µg/mL; MIC Escherichia coli, lipopeptides without TFA counter ion [12]: 64 µg/mL (≈ 180 µM); MBC Escherichia coli [12]: 128 µg/mL (≈ 360 µM); MFC Candida tropicalis [13]: >512 µg/mL; MIC Candida tropicalis [13]: >512 µg/mL; MBC Enterococcus fecalis, lipopeptides without TFA counter ion [14]: 64 µg/mL (≈ 180 µM); MIC Enterococcus fecalis [14]: 64 µg/mL (≈ 180 µM); MIC Enterococcus fecalis, lipopeptides without TFA counter ion [14]: 64 µg/mL (≈ 180 µM); MBC Enterococcus fecalis [14]: 64 µg/mL (≈ 180 µM); MBC Klebsiella pneumoniae, lipopeptides without TFA counter ion [15]: 512 µg/mL (≈ 1440 µM); MIC Klebsiella pneumoniae [15]: 64 µg/mL (≈ 180 µM); MIC Klebsiella pneumoniae, lipopeptides without TFA counter ion [15]: 64 µg/mL (≈ 180 µM); MBC Klebsiella pneumoniae [15]: 512 µg/mL (≈ 1440 µM)
3 | CCCCCCCCCCCCCC(=O)N[C@@H](CCCCN)C(=O)NCC(=O)N[C@@H](CCCCN)C(=O)NCC(N)=O [C14-KGKG-NH2] (Myristoyl-KGKG-NH2) | >512 | 256 (≈ 428 µM) | 128 (≈ 214 µM) | >512 | 128 (≈ 214 µM) | 128 (≈ 214 µM) | 32 (≈ 53.5 µM) | 32 (≈ 53.5 µM) | 16 (≈ 26.8 µM) | 16 (≈ 26.8 µM) | 64 (≈ 107 µM) | 64 (≈ 107 µM) | 64 (≈ 107 µM) | 128 (≈ 214 µM) | 128 (≈ 214 µM) | 128 (≈ 214 µM) | 256 (≈ 428 µM) | 64 (≈ 107 µM) | 128 (≈ 214 µM) | 128 (≈ 214 µM) | Hemolysis HC10 (MHC), concentration of lipopeptide inducing 10% of hemolysis [4]: 512 µg/mL; MIC Escherichia coli, lipopeptides without TFA counter ion [12]: 128 µg/mL (≈ 214 µM); MBC Escherichia coli [12]: 128 µg/mL (≈ 214 µM); MFC Candida tropicalis [13]: 512 µg/mL (≈ 856 µM); MIC Candida tropicalis [13]: 512 µg/mL (≈ 856 µM); MBC Enterococcus fecalis, lipopeptides without TFA counter ion [14]: 64 µg/mL (≈ 107 µM); MIC Enterococcus fecalis [14]: 64 µg/mL (≈ 107 µM); MIC Enterococcus fecalis, lipopeptides without TFA counter ion [14]: 64 µg/mL (≈ 107 µM); MBC Enterococcus fecalis [14]: 64 µg/mL (≈ 107 µM); MBC Klebsiella pneumoniae, lipopeptides without TFA counter ion [15]: 128 µg/mL (≈ 214 µM); MIC Klebsiella pneumoniae [15]: 128 µg/mL (≈ 214 µM); MIC Klebsiella pneumoniae, lipopeptides without TFA counter ion [15]: 128 µg/mL (≈ 214 µM); MBC Klebsiella pneumoniae [15]: 128 µg/mL (≈ 214 µM)
4 | CCCCCCCCCCCCCCCC(=O)N[C@@H](CCCCN)C(=O)N[C@@H](CCCCN)C(=O)N[C@@H](CCCCN)C(=O)N[C@@H](CCCCN)C(N)=O [C16-KKKK-NH2] (Palmitoyl-KKKK-NH2) | >512 | 128 (≈ 167 µM) | 8 (≈ 10.4 µM) | >512 | 128 (≈ 167 µM) | 128 (≈ 167 µM) | 4 (≈ 5.21 µM) | 4 (≈ 5.21 µM) | 4 (≈ 5.21 µM) | 4 (≈ 5.21 µM) | 4 (≈ 5.21 µM) | 4 (≈ 5.21 µM) | 4 (≈ 5.21 µM) | 8 (≈ 10.4 µM) | 128 (≈ 167 µM) | 128 (≈ 167 µM) | 128 (≈ 167 µM) | 8 (≈ 10.4 µM) | 8 (≈ 10.4 µM) | 8 (≈ 10.4 µM) | MIC Escherichia coli, lipopeptides without TFA counter ion [12]: 8 µg/mL (≈ 10.4 µM); MBC Escherichia coli [12]: 8 µg/mL (≈ 10.4 µM); MFC Candida tropicalis [13]: 128 µg/mL (≈ 167 µM); MIC Candida tropicalis [13]: 128 µg/mL (≈ 167 µM); MBC Enterococcus fecalis, lipopeptides without TFA counter ion [14]: 8 µg/mL (≈ 10.4 µM); MIC Enterococcus fecalis [14]: 16 µg/mL (≈ 20.8 µM); MIC Enterococcus fecalis, lipopeptides without TFA counter ion [14]: 4 µg/mL (≈ 5.21 µM); MBC Enterococcus fecalis [14]: 16 µg/mL (≈ 20.8 µM); MBC Klebsiella pneumoniae, lipopeptides without TFA counter ion [15]: 4 µg/mL (≈ 5.21 µM); MIC Klebsiella pneumoniae [15]: 4 µg/mL (≈ 5.21 µM); MIC Klebsiella pneumoniae, lipopeptides without TFA counter ion [15]: 4 µg/mL (≈ 5.21 µM); MBC Klebsiella pneumoniae [15]: 8 µg/mL (≈ 10.4 µM)
